Here are results for five compounds from patent US20080249075A1, “C11 Modified Retrosteroids as Progesterone Receptor Modulator Compounds” (Solvay Pharmaceuticals GmbH, priority 2007, published 2008).

Molecules are shown by their SMILES.

The target of test [1] is T1, human progesterone receptor (Homo sapiens, UniProt P06401).
T1 sequence (P06401 679-933 limits assumed): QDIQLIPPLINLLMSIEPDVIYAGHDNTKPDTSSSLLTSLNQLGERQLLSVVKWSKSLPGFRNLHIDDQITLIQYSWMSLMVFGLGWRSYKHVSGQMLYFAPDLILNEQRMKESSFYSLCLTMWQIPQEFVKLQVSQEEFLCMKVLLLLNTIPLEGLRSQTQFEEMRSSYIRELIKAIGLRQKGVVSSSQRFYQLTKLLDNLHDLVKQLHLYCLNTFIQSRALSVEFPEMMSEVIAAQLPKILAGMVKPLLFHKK
Briefly: Progesterone receptor binding assay, human PR (CEREP). The settings on record: 3H-R5020 as ligand, MCF7 cells as source of PR; for Ki: read-out: Human PR binding (pKi) (converted). As for the experimental part:
The progesterone receptor (PR) binding assays were performed at CEREP (Celle I'Evescault, France).
The binding to the human progesterone receptor (Assay Cat No: Progesterone receptor-814h) was be measured using 3H-R5020 as ligand and MCF7 cells as the source of progesterone receptor. The assay is performed as described by Eckert & Katzenellenbogen [1982]. The binding to the bovine progesterone receptor (Assay Cat No: Progesterone receptor-814) was measured using 3H-R5020 as ligand and uterus tissue as the source of progesterone receptor. The assay was performed as described by Hurd & Moudgil [1988].
The results of the receptor binding assay are presented as the individual pKi values, which were determined by measuring the binding activity to the human or bovine PR, as indicated, for a concentration range of each compound.

The test system of test [2] is T47D human breast carcinoma cells. The experiment in a line: cells. It counts as cell-based. The settings on record: for activation at 0.1 µM: 48 h, read-out: PS [100 nM] (% stimulation); for inhibition at 0.1 µM: read-out: PI [100 nM] (% inhibition); for IC50: read-out: pIC50 (converted). As for the experimental part: The progesterone-dependent modulation of alkaline phosphatase expression was examined using T47D human breast carcinoma cells [Keydar et al., 1979]. The assay was performed as previously described by Di Lorenzo et al. (1991) with the modification of using Dydrogesterone as comparative progestin to determine the antagonistic and agonistic activity.
The cell line was purchased from CLS Cell Lines Service (Hildastrasse 21, D-69214 Eppelheim, Germany). In brief, the cells were plated in 96-well plates at 40,000 cells/well using the following growth medium: RPMI 1640 with: 10% FBS, 1 mM Sodium Pyruvat MEM, 10 mM Hepes, 0.01 mg/ml Bovine insulin, and 25 μg/ml Gentamycin. After 24 h of cultivation, the growth medium was replaced with medium containing 2% fetal bovine serum and the test compounds were added to each well to achieve the appropriate compound concentration: For determination of agonistic activity only the test compounds were added; for measurement of antagonistic activity the test compounds and additionally Dydrogesterone as standard progesterone agonist was added to a final concentration of 1 nM. After 48 h of cultivation, the medium was removed and the cells were washed with 200 μl of Dulbecco's phosphate-buffered saline without calcium and magnesium (PBS(−)). Then the cells were fixed with 3.7% formaldehyde in phosphate-buffered saline for 15 min at 22° C. After washing the cells with PBS, 100 μl of a […] (pNPP) solution (pNPP Liquid Substrate System; Sigma) was added to each well and incubated for 2 h at room temperature protected from light. The reaction was stopped with 100 μl 1N NaOH and the absorbance was measured with a spectrophotometer (Victor, Perkin Elmer) at 405 nm. The results are expressed as alkaline phosphatase induction (as 100% with 1 nM Dydrogesterone) or inhibition (against alkaline phosphatase induction by 1 nM Dydrogesterone) at a certain concentration of test compound.
% stimulation=(effect compound−basal)/(effect dydro 1 nM−basal)*100% inhibition of 1 nM Dydro=100*{1-[(effect compound−basal)/(effect dydro 1 nM−basal)]}
For each compound the % inhibition (PI) and % stimulation (PS), respectively, at a compound concentration of 100 nM was determined. For selected compounds, the corresponding values were measured for several different concentrations, and subsequently were plotted against the concentration of the test compound, and used to calculate the IC50 value (for the antagonistic potency; the IC50 value is the concentration (nM), required to reduce the maximal response by 50%) and EC50 values (for the agonistic potency; the EC50 value is the effective concentration (nM) that produced 50% of the maximum response), respectively.

In the case of `CC(=O)[C@H]1CC[C@H]2[C@@H]3C=CC4=CC(=O)CC[C@@]4(C)[C@@H]3[C@@H](OC(=O)Nc3ccc4[nH]ccc4c3)C[C@]12C` [compound 91, (1H-Indol-5-yl)-carbamic aciddydrogesterone-11-yl ester], the Ki in test [1] is no less than 631 nM. In addition, in test [2] (Homo sapiens, T47D), the activation at 0.1 µM was 1%, the inhibition at 0.1 µM stood at 58% and the IC50 is 100 nM.

Turning to `CC(=O)[C@H]1CC[C@H]2[C@@H]3C=CC4=CC(=O)CC[C@@]4(C)[C@@H]3[C@@H](OC(=O)Nc3ccc4c(c3)OCO4)C[C@]12C` [Compound No. 13, Benzo[1,3]dioxol-5-yl-carbamic acid dydrogesterone-11β-yl ester], the Ki in test [1] is no less than 631 nM. For the same compound, in test [2] (Homo sapiens, T47D), the activation at 0.1 µM was 5%, the inhibition at 0.1 µM came out at 73% and the IC50 is 31.6 nM. For the same compound, in test [2] (Homo sapiens, T47D, read-out: pEC50 (converted)), the EC50 is 398 nM.

In the case of `CC(=O)[C@H]1CC[C@H]2[C@@H]3C=CC4=CC(=O)CC[C@@]4(C)[C@@H]3[C@@H](OC(=O)Nc3cnc4ccccc4c3)C[C@]12C` [compound 51, Quinolin-3-yl-carbamic aciddydrogesterone-11-yl ester], the Ki in test [1] is 398 nM. For the same compound, in test [2] (Homo sapiens, T47D), the activation at 0.1 µM was determined as 5%, the inhibition at 0.1 µM was 59% and the IC50 is 100 nM.

In the case of `CC(=O)[C@H]1CC[C@H]2[C@@H]3C=CC4=CC(=O)CC[C@@]4(C)[C@@H]3C(OC(=O)NCc3ccc4c(c3)OCO4)C[C@]12C` (stereo partly drawn) [compound 42, Benzo[1,3]dioxol-5-ylmethyl-carbamic acid dydrogesterone-11-yl ester], in test [1], the “Human PR binding (pKi)” value is 6.8. The “PS [100 nM] (% stimulation)” value in test [2] (agonistic mode, alkaline phosphatase induction (100% = 1 nM Dydrogesterone), compound 100 nM, T47D cells) is reported as 76.0%. Further, the pEC50 in test [2] (agonistic potency, T47D cells) was found to be 7.0. The “PI [100 nM] (% inhibition)” value in test [2] (antagonistic mode, inhibition of alkaline phosphatase induction by 1 nM Dydrogesterone, compound 100 nM, T47D cells) is 6.0%.

As to `CCO[C@]1(C(C)=O)CC[C@H]2[C@@H]3C=CC4=CC(=O)C5CC5[C@@]4(C)[C@@H]3[C@@H](OC(=O)Nc3cccc(OC)c3)C[C@@]21C` (stereo partly drawn) [Compound No. 29], in test [1], the Ki was 398 nM. For the same compound, in test [2] (Homo sapiens, T47D), the activation at 0.1 µM was determined as 0%, the inhibition at 0.1 µM was 87% and the IC50 is 5.01 nM.

The inhibition is the change of the read-out against control, counted positive when it falls. The pEC50 is −log10 of the EC50, conventionally taken in molar units. A high value points to a low EC50.
